What is called pIC50 is the IC50 on a negative log10 scale, so that one unit is a factor of ten. Read a high pIC50 as a small IC50.

pIC50: −log10 of the molar value.

The values below come from PMC7797697 (Theranostics, 2021).

One assay concerns PC-3. Nature of the assay: CCK8 assay IC50. Type of assay: cell-based. The following applies: Homo sapiens, PC-3, prostatic cancer, 72 h. The protocol:
(§1) Cell viability was then detected using a CCK8 assay (MedChemExpress, USA) according to the manufacturer's instructions.
(§2) Statistical analyses of all data were performed using GraphPad Prism (version 8.0, Graph Pad Software Inc., San Diego, CA, USA). All the data were analyzed by Student's t-test or one-way ANOVA. The Z-Score was chosen to evaluate the results and experimental deviation. Quantitative data are presented as the mean ± SD. The asterisk (*) denotes statistically significant difference (P < 0.05). IC50 was calculated using a four-parameter fit with variable slope in GraphPad Prism.
On the technique in general: Formazan colour is commonly taken as a measure of viable cells.

A further assay deals with Caco-2. Briefly: CCK8 assay IC50. In kind it is cell-based. The following applies: Homo sapiens, Caco-2, colon cancer, 72 h. The protocol:
as §1, §2

The test system of the next assay is A549. Nature of the assay: CCK8 assay IC50. The following applies: Homo sapiens, A549, lung cancer, 72 h. In kind it is cell-based. As for the experimental part:
as §1, §2

Another assay deals with SMMC-7721. Briefly: CCK8 assay IC50. Type of assay: cell-based. The following applies: Homo sapiens, SMMC-7721, liver cancer, 72 h. The protocol:
as §1, §2

Another assay has as its system SH-SY5Y. Briefly: CCK8 assay IC50. The following applies: Homo sapiens, neuroblastoma, 72 h. In kind it is cell-based. The protocol: as §1, §2
A further assay concerns MCF-7. Nature of the assay: CCK8 assay IC50. Type of assay: cell-based. The following applies: Homo sapiens, MCF7; MCF-7, 72 h, CCK8, value of the text. The protocol:
as §1, §2

A further assay deals with HCT-15. Nature of the assay: CCK8 assay IC50. In kind it is cell-based. The following applies: Homo sapiens, HCT-15, colon cancer, 72 h. The protocol:
as §1, §2

Another assay has as its system PANC-1. Nature of the assay: CCK8 assay IC50. Type of assay: cell-based. Conditions: Homo sapiens, PANC-1, pancreatic cancer, 72 h. As for the experimental part: as §1, §2
A further assay deals with HeLa. Briefly: CCK8 assay IC50. Type of assay: cell-based. The following applies: Homo sapiens, cervical cancer, 72 h. As for the experimental part:
as §1, §2

The subject of another assay is T-47D. Briefly: CCK8 assay IC50. Type of assay: cell-based. The following applies: Homo sapiens, T47D, breast cancer, 72 h. The protocol:
as §1, §2

For assay [1], the system named is non-breast cancer cell lines. Briefly: CCK8 assay IC50, panel summary. Type of assay: cell-based. Conditions: panel of non-breast cancer cell lines, 72 h. The protocol:
as §1, §2

Assay [2] has as its system MDA-MB-231, T-47D, and primary breast tumor cells. Briefly: Wound-healing assay. Conditions: compared with DMSO treatment, P < 0.05. In kind it is cell-based, human. As for the experimental part: Tumor cell migration was determined by the wound healing assay. […] After treatment, a straight scratch was made onto the cell monolayer using a pipette tip. The cells were washed with PBS three times to remove the floating cells, and the cells were cultured in serum-free medium for 24 h. Cell wound edges were captured using a light microscope.

The subject of assay [3] is MDA-MB-231 cells. Nature of the assay: RT-qPCR of marker genes. In kind it is cell-based, human. The protocol:
Reverse transcription was performed using the RevertAid First Strand cDNA Synthesis Kit ([…]) according to the manufacturer's instructions. The primers for the detection of target mRNA are shown in Table S2. β-actin was used as an internal reference. The relative expression of target genes was calculated by the 2^-ΔΔCt method.
(Real-time PCR tracks product formation cycle by cycle.)

Assay [4] deals with MDA-MB-231 cells. Briefly: High-content epigenetic inhibitor screen, quantification of living cells. Type of assay: cell-based, human. The following applies: 72 h.
Text: HeLa, MCF-7 and MDA-MB-231 cell lines were purchased from the American Type Culture Collection. MCF-10A, T-47D, PANC-1, A549, HCT-15, Caco-2, SMMC-7721, SH-SY5Y, HUVEC and PC-3 cell lines were obtained from the Chinese Academy of Medical Sciences. MEF was isolated from pregnant mice at 14‒16 days of pregnancy. Primary breast cancer cells were isolated from breast cancer patients. All media including Dulbecco Modified Eagle Medium (DMEM), RPMI 1640 Medium and DMEM/Nutrient Mixture F-12 were supplemented with 10% fetal bovine serum (FBS), 100 units/mL penicillin, and […] streptomycin (Gibco, Waltham, MA, USA). Cells were cultured in a humidified incubator equilibrated with 5% CO2 at 37 °C. Cells were treated for 24-72 h in adherent conditions with compounds from an epigenetic small molecule inhibitor library (L1200, Topscience, Shanghai, China).
as §2
To identify potential anti-tumor inhibitors, we screened an epigenetic small molecule inhibitor library for anti-tumor activity in breast cancer cells. […] The selection strategy mainly comprised three stages, in which different concentrations (high to low) of inhibitors screened with a high-content analysis instrument were identified using cancer cell lines in a 96-well plate format (Figure 1A). For the first step, we treated cells with a high concentration of compounds to exclude compounds ineffective in killing cancer cells. MDA-MB-231 cells, a human breast cancer cell line, were treated with 167 epigenetic compounds (30 μM each) for 48 h, and then analyzed by high-content analysis, where changes in cell morphology relative to the control (dimethyl sulfoxide, DMSO) would indicate modulation of cancer cells by compound treatment. […] At the second step, we treated the cells with the 60 compounds at a median concentration (3 μM) for 72 h to screen for inhibitors that can kill cancer cells with high efficiency.

Assay [5] deals with MDA-MB-231, T-47D, and primary breast tumor cells. Nature of the assay: Colony formation assay. Conditions: crystal violet staining. In kind it is cell-based, human. The protocol:
The colony-formation ability of MDA-MB-231 and T-47D cells were measured by the clonogenic assay. […] After treatment, cells were digested and suspended in culture medium at a density of 5 × 10^3 cells/ml. Cells (2,000 cells per well) were seeded into 6-well plates and cultured for two weeks. The, cells were fixed with 4% formaldehyde and washed with phosphate-buffered saline (PBS) and stained with crystal violet for half an hour. Images of colonies were captured using a light microscope.

The test system of assay [6] is MDA-MB-231 and primary breast tumor cells. Nature of the assay: EdU incorporation assay. In kind it is cell-based, human. Conditions: compared to DMSO treatment. An excerpt:
After that, DNA proliferation was detected using an EdU assay kit according to the manufacturer's instructions (RiboBio, Guangzhou, China).

Take `CN(C)Cc1c(C(=O)NCCOc2ccc(C(=O)NO)cc2)oc2ccccc12` [PCI-24781]: the pIC50 in the assay on PC-3 is 5.91; with Caco-2, 5.70; in the assay with A549, 5.94; in the assay on SMMC-7721, 4.92; with SH-SY5Y, 5.22; in the assay with MCF-7 it was 6.05. Moreover, the pIC50 with HCT-15 is 4.48; in the assay with PANC-1, 5.52; in the assay on HeLa it was 5.74; in the assay on T-47D, 5.58; in assay [1], under 6.00. The “wound closure (cell migration)” value in assay [2] was “significant delay”. The “expression of Ca^2+-related pathway markers (SYT1, SYTL2, SYT7, SYT12, TC2N, MMP1, MMP3, PLCβ3)” value with MDA-MB-231 cells [3] was “downregulated”. Besides, in the assay on MDA-MB-231 cells [3], the “expression of MMP2, MMP15, and MMP16” value is recorded as “significantly inhibited”. The “expression of epithelial markers (α-catenin, γ-catenin)” value with MDA-MB-231 cells [3] is “significant upregulation”. Further, the “mRNA levels of mesenchymal/NE markers (N-cadherin, vimentin, fibronectin, Syn, ASH1, NCAM1)” value in the assay on MDA-MB-231 cells [3] is given as “either inhibited or unaffected”. The cell death in the assay on MDA-MB-231 cells [4] (0.15 μM) is on record as ~ 20%. Besides, the “effect on cell survival” value in the assay with MDA-MB-231 cells [4] (3 μM) is on record as “discernible effects on cell survival”. Also, in [5], the colony formation entry is reported as “decreased colony formation”. In assay [6], the “cell proliferation (EdU incorporation)” value was “decreased proliferation”.
